Test results published in ChEMBL document CHEMBL3879883, “GPR 17 agonists and screening assay” (2013).
pEC50: −log10 of the molar value. Blank lines part the entries; values can stand above or below the compound they belong to. The source made the active and inactive calls. The calls are words filed in the database; no cut-off is given here.

Columns and labels:
[1] = molecular target: T1, Uracil nucleotide/cysteinyl leukotriene receptor (Homo sapiens, UniProt Q13304); test: Agonist activity at recombinant human GPR17 short isoform transfected in CHO cells assessed as mobilization of intracellular Ca2+ at 1 uM after 20 mins by oregon green 488 BAPTA-1/AM dye-based fluorescence assay relative to control; type: functional, cell-based
[2] = molecular target: T1, Uracil nucleotide/cysteinyl leukotriene receptor; test: Agonist activity at recombinant human GPR17 short isoform transfected in human 1321N1 cells assessed as mobilization of intracellular Ca2+ at 1 uM after 20 mins by oregon green 488 BAPTA-1/AM dye-based fluorescence assay relative to control; type: functional, cell-based
[3] = Effect on Ca2+ mobilization in GPR17 deficient human 1321N1 cells at 0.3 uM after 20 mins by oregon green 488 BAPTA-1/AM dye-based fluorescence assay; type: functional
CHO-K1 [4] = test: Effect on Ca2+ mobilization in GPR17 deficient CHOK1 cells at 0.3 uM after 20 mins by oregon green 488 BAPTA-1/AM dye-based fluorescence assay; type: functional, Cricetulus griseus
[5] = molecular target: T1, Uracil nucleotide/cysteinyl leukotriene receptor; test: Agonist activity at recombinant human GPR17 short isoform transfected in CHO cells assessed as mobilization of intracellular Ca2+ at 0.3 uM after 20 mins by oregon green 488 BAPTA-1/AM dye-based fluorescence assay relative to control; type: functional, cell-based
[6] = molecular target: T1, Uracil nucleotide/cysteinyl leukotriene receptor; test: Agonist activity at recombinant human GPR17 short isoform transfected in human 1321N1 cells assessed as mobilization of intracellular Ca2+ at 10 uM after 20 mins by oregon green 488 BAPTA-1/AM dye-based fluorescence assay relative to control; type: functional, cell-based
[7] = molecular target: T1, Uracil nucleotide/cysteinyl leukotriene receptor; test: Agonist activity at recombinant human GPR17 short isoform transfected in CHO cells assessed as mobilization of intracellular Ca2+ after 20 mins by oregon green 488 BAPTA-1/AM dye-based fluorescence assay; type: functional, cell-based
[8] = molecular target: T1, Uracil nucleotide/cysteinyl leukotriene receptor; test: Agonist activity at recombinant human GPR17 short isoform transfected in human 1321N1 cells assessed as mobilization of intracellular Ca2+ at 3 uM after 20 mins by oregon green 488 BAPTA-1/AM dye-based fluorescence assay relative to control; type: functional, cell-based
[9] = Effect on Ca2+ mobilization in GPR17 deficient human 1321N1 cells at 3 uM after 20 mins by oregon green 488 BAPTA-1/AM dye-based fluorescence assay; type: functional
CHO-K1 [10] = test: Effect on Ca2+ mobilization in GPR17 deficient CHOK1 cells at 3 uM after 20 mins by oregon green 488 BAPTA-1/AM dye-based fluorescence assay; type: functional, Cricetulus griseus
[11] = molecular target: T1, Uracil nucleotide/cysteinyl leukotriene receptor; test: Agonist activity at recombinant human GPR17 short isoform transfected in CHO cells assessed as mobilization of intracellular Ca2+ at 3 uM after 20 mins by oregon green 488 BAPTA-1/AM dye-based fluorescence assay relative to control; type: functional, cell-based
[12] = Effect on Ca2+ mobilization in GPR17 deficient human 1321N1 cells at 1 uM after 20 mins by oregon green 488 BAPTA-1/AM dye-based fluorescence assay; type: functional
CHO-K1 [13] = test: Effect on Ca2+ mobilization in GPR17 deficient CHOK1 cells at 1 uM after 20 mins by oregon green 488 BAPTA-1/AM dye-based fluorescence assay; type: functional, Cricetulus griseus
[14] = molecular target: T1, Uracil nucleotide/cysteinyl leukotriene receptor; test: Agonist activity at recombinant human GPR17 short isoform transfected in human 1321N1 cells assessed as mobilization of intracellular Ca2+ after 20 mins by oregon green 488 BAPTA-1/AM dye-based fluorescence assay; type: functional, cell-based
[15] = molecular target: T1, Uracil nucleotide/cysteinyl leukotriene receptor; test: Antagonist activity at recombinant human GPR17 short isoform transfected in CHO cells assessed as inhibition of RA-II-150-mediated intracellular Ca2+ mobilization preincubated for 5 to 30 mins followed by RA-II-150 addition measured after 20 mins by oregon green 488 BAPTA-1/AM dye-based fluorescence assay; type: functional, cell-based
[16] = molecular target: T1, Uracil nucleotide/cysteinyl leukotriene receptor; test: Agonist activity at recombinant human GPR17 short isoform transfected in CHO cells assessed as inhibition of forskolin-stimulated intracellular cAMP accumulation after 30 mins by FRET assay; type: functional, cell-based
CHO = test: Inhibition of forskolin-stimulated intracellular cAMP accumulation in CHO cells after 30 mins by FRET assay; type: functional, cell-based; conditions: Cricetulus griseus
CHO-K1 [17] = test: Effect on Ca2+ mobilization in GPR17 deficient CHOK1 cells at 0.1 uM after 20 mins by oregon green 488 BAPTA-1/AM dye-based fluorescence assay; type: functional, Cricetulus griseus
[18] = Effect on Ca2+ mobilization in GPR17 deficient human 1321N1 cells at 0.1 uM after 20 mins by oregon green 488 BAPTA-1/AM dye-based fluorescence assay; type: functional

T1 sequence (Q13304 whole entry, canonical isoform): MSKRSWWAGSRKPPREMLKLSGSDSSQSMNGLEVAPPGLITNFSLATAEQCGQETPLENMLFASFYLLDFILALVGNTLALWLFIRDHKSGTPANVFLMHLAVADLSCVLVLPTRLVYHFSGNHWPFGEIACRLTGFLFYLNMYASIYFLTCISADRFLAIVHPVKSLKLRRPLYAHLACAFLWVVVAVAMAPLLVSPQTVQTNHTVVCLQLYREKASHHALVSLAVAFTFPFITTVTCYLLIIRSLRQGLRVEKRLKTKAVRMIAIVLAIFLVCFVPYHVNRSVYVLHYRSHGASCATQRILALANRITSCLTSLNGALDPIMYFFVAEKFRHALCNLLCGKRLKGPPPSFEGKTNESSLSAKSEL

Compound: O=C(O)CCc1c(C(=O)O)[nH]c2cc(Cl)ccc12
- Activity [1]: 94%
- Activity [2]: 84%
- Activity [3]: 4%
- Activity (CHO-K1 [4]): 1%

Compound: O=C(O)CCc1c(C(=O)O)[nH]c2cc(Br)cc(Br)c12
- Activity [5]: 89%
- Activity [3]: 0%
- Activity (CHO-K1 [4]): 0%
- Activity [6]: 106%

Compound: O=C(O)CCc1c(C(=O)O)[nH]c2cc(I)ccc12
- pEC50 [7]: 6.15

Compound: O=C(O)CCc1c(C(=O)O)[nH]c2cc(F)cc(F)c12
- Activity [8]: 77%
- Activity [9]: 2%
- Activity (CHO-K1 [10]): 1%
- Activity [11]: 97%

Compound: O=C(O)CCc1c(C(=O)O)n(CCC(=O)O)c2cc(Cl)cc(Cl)c12
- Activity [12]: 1%
- Activity [1]: 85%
- pEC50 [7]: 6.73
- Activity (CHO-K1 [13]): 1%
- pEC50 [14]: 5.28
- Activity [2]: 80%

Compound: O=C(Nc1cccc2c(=O)cc(-c3nnn[nH]3)oc12)c1ccc(OCCCCc2ccccc2)cc1
- inhibition [15]: Dose-dependent effect

Compound: NCC(=O)CCC(=O)O
- inhibition [16]: Active
- inhibition (CHO): Active

Compound: O=C(O)CCc1c(C(=O)O)[nH]c2cc(Cl)cc(Cl)c12
- Activity (CHO-K1 [17]): 0%
- Activity [5]: 100%
- Activity [18]: 0%

Second part, led by results:

- pEC50 [7]: 5.32
Compound: O=C(O)CCc1c(C(=O)O)[nH]c2cc(I)cc(I)c12

- pEC50 [7]: 5.52
Compound: O=C(O)CCc1c(C(=O)O)[nH]c2cc(-c3ccccc3)cc(-c3ccccc3)c12

- pEC50 [7]: 6.14
Compound: O=C(O)CCc1c(C(=O)O)[nH]c2cc(-c3ccccc3)ccc12

- Activity [1]: 68%
- Activity [2]: 76%
Compound: Cc1cc(C)c2c(CCC(=O)O)c(C(=O)O)[nH]c2c1
- Activity [12]: 1%
- Activity (CHO-K1 [13]): 1%

- pEC50 [7]: 5.50
Compound: O=C(O)CCc1c(C(=O)O)[nH]c2cc(Br)ccc12
